Consider three compounds from patent US11339181B2, “Crystalline forms of a Janus kinase inhibitor” (Japan Tobacco Inc., priority 2016, dated 2022).

By solubility is commonly meant how much of the substance goes into solution per volume. Low readings indicate a poorly soluble substance, high ones a readily soluble substance. The term Solubility denotes how much of the substance goes into solution per volume. Higher therefore signals much dissolved substance.

Converted amounts (≈) assume the structure as drawn.

This data set is described as follows: Solubility test (shaken at 20° C. for 3 hours, filtered, HPLC). The data set is classed as physicochemical. To be noted: for solubility at 3 h: 20 °C, thermodynamic from solid; for solubility at 3 h / Solubility: 20° C., shaken 3 hours; for Solubility rank among Forms α, β, γ: in each solvent measured. Here is the method:
Each sample (i.e., Forms α, β, and γ of Compound A) was weighed to a 4-mL-volume glass vial. A test solution (3 mL) was added to the vial and the mixture was suspended. About 150 mg of the sample was weighed for the test solution of the 1st fluid for solubility test of The Japanese Pharmacopoeia and about 15 mg was weighed for the test solutions of the 2nd fluid for solubility test of The Japanese Pharmacopoeia and water. Each mixture was shaken with a constant temperature incubator shaker (manufactured by TAITEC) at 20° C. for 3 hours. After being shaken, the supernatant was filtered through a polytetrafluoroethylene disk filter (Millex-LG; manufactured by Millipore) with the 0.2-μm pore size and 4-mm diameter. The measurement was performed by high-performance liquid chromatography (HPLC).

Where [1] appears, read: Solvent: JP 1st fluid for solubility test, pH about 1.2.
Setting [2] is: Solvent: JP 2nd fluid for solubility test (water / phosphate buffer pH 6.8, 1:1).

Consider `C[C@H]1CN(C(=O)CC#N)[C@]12CCN(c1ncnc3[nH]ccc13)C2` [Form α, 3-((3S,4R)-3-methyl-6-(7H-pyrrolo[2,3-d]pyrimidin-4-yl)-1,6-diazaspiro[3.4]octan-1-γ 1)-3-oxopropanenitrile], for which the “Solubility rank among Forms α, β, γ” value is listed as “highest solubility”. Under “JP 1st fluid for solubility test, pH 1.2, simulated gastric fluid, Solvent: JP 1st fluid for solubility test, pH about 1.2”, the solubility at 3 h is 45000 µg/mL (≈ 145 mM). This compound also registered a solubility at 3 h (JP 2nd fluid for solubility test, pH 6.8, aqueous buffer, Solvent: JP 2nd fluid for solubility test (water / phosphate buffer pH 6.8, 1:1)) of 2700 µg/mL (≈ 8.7 mM). The same compound returned a solubility at 3 h (water, water, Solvent: Water) of 2600 µg/mL (≈ 8.38 mM).

`C[C@H]1CN(C(=O)CC#N)[C@]12CCN(c1ncnc3[nH]ccc13)C2` [Form β, 3-((3S,4R)-3-methyl-6-(7H-pyrrolo[2,3-d]pyrimidin-4-yl)-1,6-diazaspiro[3.4]octan-1-γ 1)-3-oxopropanenitrile]: the Solubility under setting [1] was determined as 39100 µg/mL (≈ 126 mM), the Solubility under setting [2] worked out at 2100 µg/mL (≈ 6.77 mM) and the Solubility (Solvent: Water) is 2000 µg/mL (≈ 6.44 mM).

For the compound `C[C@H]1CN(C(=O)CC#N)[C@]12CCN(c1ncnc3[nH]ccc13)C2` [Form γ, 3-((3S,4R)-3-methyl-6-(7H-pyrrolo[2,3-d]pyrimidin-4-yl)-1,6-diazaspiro[3.4]octan-1-γ 1)-3-oxopropanenitrile], the “Solubility rank among Forms α, β, γ” value is recorded as “lowest solubility”. The Solubility under setting [1] stood at 36400 µg/mL (≈ 117 mM). Moreover, under setting [2], the Solubility was 1500 µg/mL (≈ 4.83 mM). Further, the Solubility (Solvent: Water) worked out at 1500 µg/mL (≈ 4.83 mM).
